Among the test systems are K562; SK-MEL-2; MCF7; RPMI-8226; COLO 205; SNB-75; U-251; Malme-3M; MOLT-4; OVCAR-3; SNB-19; NCI-H460; HT-29; SN12C; IGROV-1; OVCAR-4; HOP-92; OVCAR-5; RXF 393; SK-OV-3.
What all share (test): NCI-60 cell line screen, 48 h

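1) Cells in 96-well plates. 2) Compound, 48 h, 5 concentrations. 3) Linear interpolation between surrounding doses. 4) Unreached endpoint = highest concentration. The concentration for 50% growth inhibition is given as GI50.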 Calls of active or inactive are those of the source. No stated cut-off is given here; in the data, active = GI50 up to about 1.1 µM and inactive = higher.

As for `Cc1ccc(C(=O)Nc2ccc(S(=O)(=O)O)c3cc(S(=O)(=O)O)cc(S(=O)(=O)O)c23)cc1NC(=O)c1cccc(NC(=O)Nc2cccc(C(=O)Nc3cc(C(=O)Nc4ccc(S(=O)(=O)O)c5cc(S(=O)(=O)O)cc(S(=O)(=O)O)c45)ccc3C)c2)c1` [SURAMIN], the GI50 with K562 was > 93.5 µM (inactive); with SK-MEL-2, 58.9 µM (inactive); with MCF7, > 100 µM (inactive); in the experiment with RPMI-8226 it was > 100 µM (inactive); with COLO 205, > 72.9 µM (inactive); in the experiment with SNB-75 it was 48.2 µM (inactive). Further, the GI50 is 77.3 µM (inactive) in the experiment on U-251; > 83 µM (inactive) with Malme-3M; > 80 µM (inactive) with MOLT-4; > 93.3 µM (inactive) in the experiment with OVCAR-3; > 100 µM (inactive) in the experiment on SNB-19; > 80.5 µM (inactive) in the experiment on NCI-H460. Further, the GI50 in the experiment on HT-29 was 62.4 µM (inactive); in the experiment on SN12C, > 80.9 µM (inactive); in the experiment on IGROV-1, 69.3 µM (inactive); in the experiment with OVCAR-4 it was 79.3 µM (inactive); in the experiment on HOP-92, 54.5 µM (inactive); in the experiment on OVCAR-5, > 50.6 µM (inactive). The GI50 is > 92.7 µM (inactive) in the experiment with RXF 393 and > 88.1 µM (inactive) in the experiment with SK-OV-3.
Regarding `O=C1C(Cl)=C(Nc2ccc(OC(F)(F)F)cc2)C(=O)c2c(O)ccc(O)c21`, the GI50 was 0.284 µM (active) in the experiment with K562; 0.292 µM (active) in the experiment on SK-MEL-2; 0.46 µM (active) in the experiment with MCF7; 0.0598 µM (active) in the experiment on RPMI-8226; 1.2 µM (inactive) in the experiment with COLO 205; 0.735 µM (active) with SNB-75. For the same molecule, the GI50 with U-251 was 0.726 µM (active); in the experiment with Malme-3M it was 1.01 µM (active); in the experiment on MOLT-4, 0.359 µM (active); in the experiment with OVCAR-3, 0.505 µM (active); with SNB-19 it was 1.22 µM (inactive); with NCI-H460 it was 1.71 µM (inactive). Further, the GI50 in the experiment with HT-29 was 0.385 µM (active); with SN12C, 0.468 µM (active); with IGROV-1, 0.745 µM (active); in the experiment on OVCAR-4, 1.57 µM (inactive); with HOP-92, 0.826 µM (active); with OVCAR-5, 1.76 µM (inactive). Further, the GI50 was 0.519 µM (active) in the experiment with RXF 393 and 1.66 µM (inactive) in the experiment on SK-OV-3.
As to `O=C1CC(=O)NC(NN2C(=O)CSC2c2ccc(Cl)c(Cl)c2)=N1` (configuration not stated), the GI50 with K562 is 49.8 µM (inactive); in the experiment with SK-MEL-2 it was > 100 µM (inactive); in the experiment with MCF7, > 100 µM (inactive); in the experiment with RPMI-8226 it was > 100 µM (inactive); with COLO 205, > 100 µM (inactive); with SNB-75, 75 µM (inactive). Moreover, the GI50 is > 100 µM (inactive) in the experiment on U-251; > 100 µM (inactive) with Malme-3M; 23.3 µM (inactive) in the experiment with MOLT-4; > 100 µM (inactive) with OVCAR-3; > 100 µM (inactive) in the experiment with NCI-H460; 76.2 µM (inactive) in the experiment with HT-29. Moreover, the GI50 in the experiment on SN12C is > 100 µM (inactive); with IGROV-1, 50.9 µM (inactive); in the experiment on OVCAR-4, > 100 µM (inactive); with HOP-92 it was > 100 µM (inactive); with OVCAR-5, > 100 µM (inactive); in the experiment on RXF 393 it was > 100 µM (inactive). For the same molecule, the GI50 in the experiment on SK-OV-3 is > 100 µM (inactive).
As for `C[C@H]1CC[C@H](NC(=O)N(CCCl)N=O)CC1`, the GI50 in the experiment on K562 was 34.3 µM (inactive); in the experiment on SK-MEL-2, 46.5 µM (inactive); in the experiment on MCF7, 50.4 µM (inactive); in the experiment with RPMI-8226, 31.6 µM (inactive); in the experiment on COLO 205, 32.7 µM (inactive); in the experiment on SNB-75, 31.1 µM (inactive). In addition, the GI50 in the experiment on U-251 is 26.7 µM (inactive); in the experiment on Malme-3M, 47.9 µM (inactive); with MOLT-4, 18.3 µM (inactive); with OVCAR-3 it was 42.1 µM (inactive); in the experiment on SNB-19, 38.7 µM (inactive); in the experiment on NCI-H460, 39.1 µM (inactive). Also, the GI50 in the experiment on HT-29 was 51.2 µM (inactive); with SN12C, 40.4 µM (inactive); in the experiment on IGROV-1, 38.8 µM (inactive); in the experiment on OVCAR-4 it was 31.6 µM (inactive); with HOP-92, 24.4 µM (inactive); with OVCAR-5, 55.7 µM (inactive). Also, the GI50 was 36 µM (inactive) in the experiment on RXF 393 and 77.3 µM (inactive) in the experiment on SK-OV-3.
Take `O=[N+]([O-])c1cc(Cl)ccc1Sc1ccccc1`: the GI50 with K562 is > 100 µM (inactive); in the experiment on SK-MEL-2, 44.8 µM (inactive); with MCF7 it was > 100 µM (inactive); in the experiment on RPMI-8226, > 100 µM (inactive); in the experiment on COLO 205, > 100 µM (inactive); in the experiment with SNB-75, 20.8 µM (inactive). Moreover, the GI50 in the experiment on U-251 is 5.89 µM (inactive); in the experiment with Malme-3M it was > 100 µM (inactive); in the experiment with MOLT-4, 56.1 µM (inactive); in the experiment on OVCAR-3, > 100 µM (inactive); in the experiment with SNB-19 it was > 100 µM (inactive); in the experiment with NCI-H460 it was 75 µM (inactive). Also, the GI50 with HT-29 was 46.8 µM (inactive); with SN12C, 77.4 µM (inactive); in the experiment with IGROV-1, > 100 µM (inactive); in the experiment on OVCAR-4 it was > 100 µM (inactive); in the experiment on HOP-92, 42.2 µM (inactive); in the experiment with OVCAR-5 it was > 100 µM (inactive). Also, the GI50 in the experiment on RXF 393 was 80.2 µM (inactive); with SK-OV-3, > 100 µM (inactive).
For `O=C1CCCC1C(=O)Nc1ccc2ccccc2c1` (configuration not stated), the GI50 was 53.5 µM (inactive) in the experiment with K562; > 100 µM (inactive) in the experiment with SK-MEL-2; > 100 µM (inactive) with MCF7; 59.2 µM (inactive) in the experiment with RPMI-8226; > 100 µM (inactive) in the experiment with COLO 205; 29.4 µM (inactive) in the experiment on SNB-75. Moreover, the GI50 is > 100 µM (inactive) in the experiment with U-251; > 100 µM (inactive) in the experiment with Malme-3M; 36.2 µM (inactive) with MOLT-4; > 100 µM (inactive) in the experiment with OVCAR-3; > 100 µM (inactive) in the experiment on SNB-19; > 100 µM (inactive) in the experiment with NCI-H460. Also, the GI50 in the experiment with HT-29 was 55.7 µM (inactive); in the experiment with SN12C, > 100 µM (inactive); in the experiment on IGROV-1, > 100 µM (inactive); with OVCAR-4 it was > 100 µM (inactive); with HOP-92 it was > 100 µM (inactive); in the experiment with OVCAR-5, > 100 µM (inactive). In addition, the GI50 was 44.5 µM (inactive) with RXF 393 and > 100 µM (inactive) with SK-OV-3.
In the case of `O=C1Nc2ccccc2/C1=C\c1c(Cl)nc2n1CCS2`, the GI50 with K562 was 21.3 µM (inactive); in the experiment on SK-MEL-2, 14.1 µM (inactive); with MCF7 it was 13 µM (inactive); in the experiment with RPMI-8226, 27.7 µM (inactive); in the experiment on COLO 205, 17.9 µM (inactive); in the experiment on SNB-75 it was 22.3 µM (inactive). The GI50 is 22.1 µM (inactive) with U-251; 23.7 µM (inactive) with Malme-3M; 30.4 µM (inactive) in the experiment with MOLT-4; 20.4 µM (inactive) in the experiment on OVCAR-3; 35.6 µM (inactive) in the experiment on SNB-19; 18.2 µM (inactive) with NCI-H460. In addition, the GI50 was 31.7 µM (inactive) in the experiment with HT-29; 24.9 µM (inactive) in the experiment with SN12C; 32.7 µM (inactive) with IGROV-1; 31.5 µM (inactive) in the experiment on OVCAR-4; 34 µM (inactive) with HOP-92; 29 µM (inactive) in the experiment on OVCAR-5. Besides, the values for the GI50 in the experiment on RXF 393 and in the experiment with SK-OV-3 were 22.6 µM (inactive) and 19.5 µM (inactive), respectively.
As for `N/C(S)=N/N=C/c1ccc(N)cn1`, the GI50 in the experiment on K562 is 3.1 µM (inactive); in the experiment with SK-MEL-2, > 10 µM (inactive); in the experiment on MCF7, 3.01 µM (inactive); with RPMI-8226 it was 3.52 µM (inactive); in the experiment on COLO 205 it was 2.99 µM (inactive); in the experiment with SNB-75 it was 2.4 µM (inactive). Moreover, the GI50 was 4.06 µM (inactive) in the experiment on U-251; 4.42 µM (inactive) in the experiment with Malme-3M; 1.95 µM (inactive) in the experiment with MOLT-4; 5.01 µM (inactive) in the experiment with OVCAR-3; 9.89 µM (inactive) in the experiment on SNB-19; 3.09 µM (inactive) in the experiment with NCI-H460. The GI50 is 4.47 µM (inactive) with HT-29; 3.92 µM (inactive) with SN12C; > 10 µM (inactive) in the experiment on IGROV-1; > 10 µM (inactive) in the experiment on OVCAR-4; 3.44 µM (inactive) in the experiment with HOP-92; 9.06 µM (inactive) in the experiment on OVCAR-5. In addition, the GI50 is 3.42 µM (inactive) in the experiment with RXF 393 and 9.84 µM (inactive) in the experiment on SK-OV-3.
With `Cc1c2ccccc2c(/C=N/NC(=O)CSCC(=O)N/N=C/c2c3ccccc3c(C)c3ccccc23)c2ccccc12`, the GI50 in the experiment on K562 is 37.9 µM (inactive); in the experiment with SK-MEL-2 it was > 78.3 µM (inactive); in the experiment with MCF7, 23 µM (inactive); with RPMI-8226, 17.2 µM (inactive); with SNB-75 it was > 27.4 µM (inactive); in the experiment on U-251, 29.6 µM (inactive). Besides, the GI50 in the experiment with Malme-3M is 37 µM (inactive); in the experiment with MOLT-4, 27.8 µM (inactive); in the experiment on OVCAR-3 it was 47.5 µM (inactive); in the experiment on SNB-19, 47 µM (inactive); in the experiment on NCI-H460 it was > 57.7 µM (inactive); in the experiment with HT-29, > 39.3 µM (inactive). Further, the GI50 in the experiment on SN12C is 61.2 µM (inactive); with IGROV-1 it was > 100 µM (inactive); in the experiment on OVCAR-4, > 42.1 µM (inactive); with HOP-92 it was 13.2 µM (inactive); in the experiment with OVCAR-5 it was 38.9 µM (inactive); in the experiment on RXF 393, 16.3 µM (inactive). In addition, in the experiment with SK-OV-3, the GI50 was > 100 µM (inactive).
Regarding `C=CCN1C(=O)/C(=C/c2ccccc2)N=C1SC1OC(COC(C)=O)C(OC(C)=O)C(OC(C)=O)C1OC(C)=O` (configuration not stated), the GI50 was 24.4 µM (inactive) with K562; 18.5 µM (inactive) in the experiment with SK-MEL-2; 28.5 µM (inactive) in the experiment on MCF7; 24.4 µM (inactive) with RPMI-8226; 21.9 µM (inactive) in the experiment with SNB-75; 19.2 µM (inactive) with U-251. For the same molecule, the GI50 in the experiment on Malme-3M was 19.5 µM (inactive); with MOLT-4, 19.9 µM (inactive); with OVCAR-3 it was 19.3 µM (inactive); in the experiment on SNB-19 it was 29.6 µM (inactive); in the experiment with NCI-H460 it was 42.8 µM (inactive); with HT-29, 32.7 µM (inactive). Further, the GI50 with SN12C is 24.2 µM (inactive); in the experiment with IGROV-1 it was 28.3 µM (inactive); in the experiment on OVCAR-4, 27.2 µM (inactive); in the experiment on HOP-92, 23.7 µM (inactive); in the experiment on OVCAR-5 it was 26 µM (inactive); in the experiment on RXF 393 it was 13.1 µM (inactive). In addition, the GI50 with SK-OV-3 was 38.7 µM (inactive).

These data come from ChEMBL document CHEMBL1201862, “PubChem BioAssay data set” (2004).
